Measured values taken from PubChem BioAssay (NCI).
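Protocol summary: plate cells (96-well), add compound at 5 concentrations, incubate 48 h, interpolate endpoints linearly. The concentration for 50% growth inhibition is given as GI50. TGI: concentration producing complete growth inhibition.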

Assays:
Test in all cases: DTP human tumour cell line panel, 48 h
UO-31 renal = test system: UO-31 renal
OVCAR-8 ovarian = test system: OVCAR-8 ovarian
SNB-75 CNS = test system: SNB-75 CNS
NCI-H522 lung = test system: NCI-H522 lung
COLO 205 colon = test system: COLO 205 colon
SW-620 colon = test system: SW-620 colon
K-562 leukemia = test system: K-562 leukemia
SF-295 CNS = test system: SF-295 CNS
IGROV1 ovarian = test system: IGROV1 ovarian
U251 CNS = test system: U251 CNS

SMILES | TGI (UO-31 renal) [µM] | TGI (OVCAR-8 ovarian) [µM] | TGI (SNB-75 CNS) [µM] | TGI (NCI-H522 lung) [µM] | TGI (COLO 205 colon) [µM] | TGI (SW-620 colon) [µM] | TGI (K-562 leukemia) [µM] | TGI (SF-295 CNS) [µM] | TGI (IGROV1 ovarian) [µM] | TGI (U251 CNS) [µM] | GI50 (UO-31 renal) [µM] | GI50 (OVCAR-8 ovarian) [µM] | GI50 (SNB-75 CNS) [µM] | GI50 (NCI-H522 lung) [µM] | GI50 (COLO 205 colon) [µM] | GI50 (SW-620 colon) [µM] | GI50 (K-562 leukemia) [µM] | GI50 (SF-295 CNS) [µM] | GI50 (IGROV1 ovarian) [µM] | GI50 (U251 CNS) [µM]
O/N=C1/CCC/C1=C\c1ccccc1 | > 100 | > 100 | 44.8 | > 100 | > 100 | > 100 | > 100 | > 100 | > 100 | > 100 |  |  |  |  |  |  |  |  |  | 
CCOC(=O)c1oc2c(OC)ccc3c2c1CCC3 | > 100 | > 100 | > 100 | > 100 | > 100 | > 100 | > 100 | > 100 | > 100 | > 100 |  |  |  |  |  |  |  |  |  | 
Cc1cccc(C(C)(C)C)c1NC(=O)C(C#N)C1=C(Cl)C(=O)c2ccccc2C1=O (stereo not given) | 27.9 | 37.4 | 27.6 | 26.9 | 35 | 36.3 | 10.2 | 30.8 | 33 | 31.3 |  |  |  |  |  |  |  |  |  | 
Clc1ccc(-c2cc(-c3ccccc3)nc(N3CCN(CCCNc4ccnc5cc(Cl)ccc45)CC3)n2)cc1 | 2.9 | 2.93 | 2.85 | 3.54 | 3.7 | 3.06 | 2.31 | 3.72 | 2.89 | 2.63 | 1.55 | 1.15 | 1.49 | 1.78 | 1.87 | 1.42 | 0.461 | 1.86 | 1.45 | 1.29
CC(Oc1cc2oc(=O)cc(-c3ccccc3)c2cc1Cl)C(=O)O (stereo not given) | > 100 | > 100 | > 100 | > 100 | > 100 | > 100 | > 100 | > 100 | > 100 | > 100 |  |  |  |  |  |  |  |  |  | 
CCc1cccc(C(C)C)c1NC(=O)CC1Sc2ccccc2NC1=O (stereo not given) | > 100 | > 100 | > 100 | 97.6 | > 100 | > 100 | > 100 | > 100 | > 100 | > 100 |  |  |  |  |  |  |  |  |  | 
NCCOc1ccc(/C(=C(/Cl)c2ccccc2)c2ccccc2)cc1 | 21.4 | 29.6 | 24.1 | 26.4 | 3.59 | 16.1 | 14.8 | 28.9 | 29.9 | 23.7 |  |  |  |  |  |  |  |  |  | 
O=C(CCc1nc(=S)[nH][nH]1)Nc1cc(Cl)ccc1Cl | > 100 | > 100 | > 100 | > 100 | > 100 | > 100 | > 100 | > 100 | > 100 | > 100 |  |  |  |  |  |  |  |  |  | 
